The source of these data is paper PMC6152724, “Secondary Sulfonamides as Effective Lactoperoxidase Inhibitors” (Molecules : A Journal of Synthetic Chemistry and Natural …, 2017).

The target in this test is T1, LPO purified from bovine milk (Bos taurus, UniProt P80025).
T1 construct: from tissue; host or cells: fresh bovine milk
Description: LPO inhibition assay (ABTS oxidation by H2O2, absorbance at 412 nm; Lineweaver–Burk plots). The class given is biochemical. The following applies: for Ki / IC50: LPO purified from bovine milk; for Ki: Lineweaver–Burk plots, three inhibitor and five ABTS concentrations, Means ± SD; for IC50: from activity (%)-[inhibitor] regression graphs, ABTS substrate; for Inhibition Type: with respect to ABTS substrate, from Lineweaver–Burk plots. The method, then:
LPO activities were determined by the procedure of Shindler and Bardsley with slight modification. This method is based on the oxidation of chromogenic substrate 2,2′-azino-bis(3-ethylbenzothiazoline-6-sulfonic acid) (ABTS) by hydrogen peroxide (H2O2), which results in a product which had absorbance at 412 nm.
The effects of secondary sulfonamide derivatives (4a–8h) on LPO purified from fresh bovine milk by affinity chromatography technique were previously determined. In our study, LPO activity was measured in the presence of different concentrations of secondary sulfanilamide derivatives (4a–8h). A control sample without secondary sulfonamide was taken as 100%. An activity (%)-[Secondary sulfonamide] plot was drawn. For the determination of the inhibition constant (Ki) values, three different secondary sulfonamide derivative (4a–8h) concentrations were used. Additionally, ABTS was used as a substrate at five different concentrations. Lineweaver–Burk plots (1/V-1/[ABTS]) were obtained for secondary sulfonamide; the Ki and the inhibition type were calculated from these plots. The data obtained were analysed by t-test and the results are given as Means ± SD.

By Ki is commonly meant a dissociation constant, usually derived from enzyme kinetics or from competition with a known ligand. A higher Ki goes with weaker binding. The IC50 is the concentration at which inhibition is half-maximal. Higher therefore signals lower potency. As for `CC(=O)Oc1cc(C(=O)Nc2ccc(S(=O)(=O)Nc3nccs3)cc2)cc(OC(C)=O)c1OC(C)=O` [6a, N-(sulfathiazole)-3,4,5-triacetoxybenzamide], the Ki was determined as 1.1 nM, the IC50 amounted to 0.656 nM and the “Inhibition Type” value was “Non-competitive”.
Take `CC(=O)Oc1cc(C(=O)Nc2ccc(S(=O)(=O)Nc3ncccn3)cc2)cc(OC(C)=O)c1OC(C)=O` [6b, N-(sulfadiazine)-3,4,5-triacetoxybenzamide]: the affinity corresponds to a Ki of 2900 ± 1130 nM, the IC50 was found to be 13900 nM and the “Inhibition Type” value is “Competitive”.
As to `CC(=O)Oc1cc(C(=O)Nc2ccc(S(=O)(=O)Nc3nc(C)cc(C)n3)cc2)cc(OC(C)=O)c1OC(C)=O` [6c, N-(sulfamethazine)-3,4,5-triacetoxybenzamide], the Ki was 152000 ± 48700 nM, the half-inhibitory concentration (IC50) stood at 139000 nM and the “Inhibition Type” value is “Non-competitive”.
As to `CC(=O)Oc1cc(C(=O)Nc2ccc(S(=O)(=O)Nc3ccccn3)cc2)cc(OC(C)=O)c1OC(C)=O` [6d, N-(sulfapyridine)-3,4,5-triacetoxybenzamide], the Ki is 1390 ± 150 nM, the IC50 is 1560 nM and the “Inhibition Type” value is listed as “Non-competitive”.
With `CC(=O)Oc1cc(C(=O)Nc2ccc(S(=O)(=O)Nc3onc(C)c3C)cc2)cc(OC(C)=O)c1OC(C)=O` [6e, N-(sulfisoxazole)-3,4,5-triacetoxybenzamide], the Ki is 1070 ± 20 nM, the IC50 came to 2030 nM and the “Inhibition Type” value is “Competitive”.
As to `CC(=O)Oc1cc(C(=O)Nc2ccc(S(=O)(=O)Nc3nnc(C)s3)cc2)cc(OC(C)=O)c1OC(C)=O` [6f, N-(sulfamethizole)-3,4,5-triacetoxybenzamide], affinity was put at a Ki of 8550 ± 1450 nM, the 50% inhibitory concentration (IC50) turned out to be 6660 nM and the “Inhibition Type” value is “Non-competitive”.
Regarding `CC(=O)Oc1cc(C(=O)Nc2ccc(S(=O)(=O)Nc3nccc(C)n3)cc2)cc(OC(C)=O)c1OC(C)=O` [6g, N-(sulfamerazine)-3,4,5-triacetoxybenzamide], the affinity corresponds to a Ki of 1490 ± 280 nM, the concentration for half-maximal inhibition (IC50) came to 1280 nM and the “Inhibition Type” value was “Non-competitive”.
As to `CC(=O)Oc1cc(C(=O)Nc2ccc(S(N)(=O)=O)cc2)cc(OC(C)=O)c1OC(C)=O` [6h, N-(sulfanilamide)-3,4,5-triacetoxybenzamide], the Ki is 2290 ± 980 nM, 3050 nM corresponded to half-maximal inhibition (IC50) and the “Inhibition Type” value is “Non-competitive”.
Turning to `O=C(Nc1ccc(S(=O)(=O)Nc2nccs2)cc1)c1ccc(O)cc1` [7a, N-(sulfathiazole)-p-hydroxybenzamide], the affinity, expressed as Ki, was 6850 ± 1810 nM; the IC50 is 15100 nM; the “Inhibition Type” value is given as “Non-competitive”.
For `O=C(Nc1ccc(S(=O)(=O)Nc2ncccn2)cc1)c1ccc(O)cc1` [7b, N-(sulfadiazine)-p-hydroxybenzamide], in that order: 44 ± 22 nM, 40 nM and “Noncompetitive”.
Turning to `Cc1cc(C)nc(NS(=O)(=O)c2ccc(NC(=O)c3ccc(O)cc3)cc2)n1` [7c, N-(sulfamethazine)-p-hydroxybenzamide], the Ki is 484 ± 146 nM, the IC50 was 426 nM and the “Inhibition Type” value is on record as “Non-competitive”.
`O=C(Nc1ccc(S(=O)(=O)Nc2ccccn2)cc1)c1ccc(O)cc1` [7d, N-(sulfapyridine)-p-hydroxybenzamide]: the inhibition constant (Ki) worked out at 1410 ± 130 nM, the IC50 was found to be 2960 nM and the “Inhibition Type” value is given as “Competitive”.
Regarding `Cc1noc(NS(=O)(=O)c2ccc(NC(=O)c3ccc(O)cc3)cc2)c1C` [7e, N-(sulfisoxazole)-p-hydroxybenzamide], the Ki came to 15100 ± 3900 nM, the IC50 worked out at 10800 nM and the “Inhibition Type” value is “Non-competitive”.
For `Cc1nnc(NS(=O)(=O)c2ccc(NC(=O)c3ccc(O)cc3)cc2)s1` [7f, N-(sulfamethizole)-p-hydroxybenzamide], in that order: 387 ± 150 nM, 799 nM and “Competitive”.
